Laboratory results from patent publication US6414147B1, “2-amino-9-alkylpurines: GABA brain receptor ligands” (Neurogen Corporation, priority 1998, dated 2002).

Question: Which melting point does the source give for `CCCCn1cnc2c(OCc3cccs3)nc(Nc3ccccc3)nc21` [compound 18, 2-(Phenylamino)-6-(thien-2-ylmethoxy)-9-butyl-9H-purine] here?
Answer: Its melting point is 170 to 172 °C.

Question: Which melting point does the source give for `CCCCn1cnc2c(OCCOCC)nc(Nc3ccccc3)nc21` [compound 11, 2-(Phenylamino)-6-(2-ethoxyethoxy)-9-butyl-9H-purine] here?
Answer: The melting point was 135 to 137 °C.

Question: Which melting point does the source give for `C=C(C)COc1nc(Nc2ccc(OCC)nc2)nc2c1ncn2CCC` [compound 77, 2-[(2-Ethoxypyrid-5-yl)amino]-6-(2-methyl-2-propen-1-oxy)-9-propyl-9H-purine] here?
Answer: Its melting point is 112 to 114 °C.

Question: For `CCCCn1cnc2c(Oc3ccccc3)nc(Nc3ccccc3)nc21` [compound 19, 2-(Phenylamino)-6-phenoxy-9-butyl-9H-purine], which melting point is on record?
Answer: The melting point was 124 to 125 °C.

Question: For `CCCCn1cnc2c(OC(C)COC)nc(Nc3ccccc3)nc21` (stereo not shown) [compound 13, 2-(Phenylamino)-6-(1-methyl-2-methoxyethoxy)-9-butyl-9H-purine], which melting point is on record?
Answer: Its melting point is 96 to 98 °C.

Question: Which melting point does the source give for `C=CCSc1nc(Nc2ccc(OC)nc2)nc2c1ncn2CCCC` [compound 69, 2-[(2-Methoxypyrid-5-yl)amino]-6-allylthio-9-butyl-9H-purine] here?
Answer: Its melting point is 107 to 109 °C.

Question: For `CCCCn1cnc2c(OC)nc(Nc3ccc(OC)nc3)nc21` [compound 55, 2-[(2-Methoxypyrid-5-yl)amino]-6-methoxy-9-butyl-9H-purine], which melting point is on record?
Answer: Its melting point is 171 to 172 °C.

Question: Which melting point does the source give for `CCCCn1cnc2c(OCC(C)C)nc(Nc3cnc4ccccc4c3)nc21` [compound 89, 2-[(Quinolin-3-yl)amino]-6-(2-methylprop-1-oxy)-9-butyl-9H-purine] here?
Answer: The melting point was 68 to 71 °C.

Question: Which melting point does the source give for `CCCCn1cnc2c(OCC)nc(Nc3ccc(Cl)cc3)nc21` [compound 43, 2-[(4-Chlorophenyl)amino]-6-ethoxy-9-butyl-9H-purine] here?
Answer: Its melting point is 164 °C.

Question: With `C=CCOc1nc(Nc2ccc(OC)nc2)nc2c1ncn2CCCC` [compound 61, 2-[(2-Methoxypyrid-5-yl)amino]-6-(2-propen-1-oxy)-9-butyl-9H-purine] as the compound, how does the melting point read?
Answer: The melting point was 174 to 176 °C.

Question: Which melting point does the source give for `CCCn1cnc2c(OCC(C)C)nc(Nc3ccc(OC)nc3)nc21` [compound 65, 2-[(2-Methoxypyrid-5-yl)amino]-6-(2-methylprop-1-oxy)-9-propyl-9H-purine] here?
Answer: The melting point was 113 to 115 °C.

Question: With `CCCCCn1cnc2c(OCC)nc(Nc3ccccc3)nc21` [compound 22, 2-(Phenylamino)-6-ethoxy-9-pentyl-9H-purine] as the compound, how does the melting point read?
Answer: Its melting point is 174 to 176 °C.

Question: With `CCCCn1cnc2c(OCC)nc(NCc3ccc(OC)cc3)nc21` [compound 97, 2-[(4-Methoxybenzyl)amino]-6-ethoxy-9-butyl-9H-purine] as the compound, how does the melting point read?
Answer: Its melting point is 129 to 130 °C.

Question: For `CCCCn1cnc2c(OC)nc(Nc3ccc(OC)cc3OC)nc21` [compound 47, 2-[(2,4-Dimethoxyphenyl)amino]-6-methoxy-9-butyl-9H-purine], which melting point is on record?
Answer: The melting point was 104 to 106 °C.

Question: Which melting point does the source give for `CCCCn1cnc2c(OCC3CC3)nc(Nc3ccc(OC)nc3)nc21` [compound 68, 2-[(2-Methoxypyrid-5-yl)amino]-6-cyclopropylmethoxy-9-butyl-9H-purine] here?
Answer: The melting point was 148 to 150 °C.

Question: Which melting point does the source give for `CCCCn1cnc2c(OC)nc(Nc3ccc(OC)cc3)nc21` [compound 39, 2-[(4-Methoxyphenyl)amino]-6-methoxy-9-butyl-9H-purine] here?
Answer: Its melting point is 158 to 160 °C.

Question: For `CCCCn1cnc2c(Oc3ccccc3)nc(Nc3ccc(F)cc3)nc21` [compound 33, 2-[(4-Fluorophenyl)amino]-6-phenoxy-9-butyl-9H-purine], which melting point is on record?
Answer: Its melting point is 171 to 172 °C.

Question: Which melting point does the source give for `CCCCn1cnc2c(OCC)nc(Nc3cnc4ccccc4c3)nc21` [compound 86, 2-[(Quinolin-3-yl)amino]-6-ethoxy-9-butyl-9H-purine] here?
Answer: The melting point was 186 to 188 °C.

Question: For `C=C(C)COc1nc(Nc2ccc(OCC)nc2)nc2c1ncn2CCCC` [compound 75, 2-[(2-Ethoxypyrid-5-yl)amino]-6-(2-methyl-2-propen-1-oxy)-9-butyl-9H-purine], which melting point is on record?
Answer: The melting point was 108 to 110 °C.

Question: Which melting point does the source give for `CCCCn1cnc2c(OCCOC)nc(Nc3ccc(OC)nc3)nc21` [compound 57, 2-[(2-Methoxypyrid-5-yl)amino]-6-(2-methoxyethoxy)-9-butyl-9H-purine] here?
Answer: Its melting point is 138 to 140 °C.

Question: For `CCCCn1cnc2c(OCc3cccnc3)nc(Nc3ccccc3)nc21` [compound 16, 2-(Phenylamino)-6-(pyrid-3-ylmethoxy)-9-butyl-9H-purine], which melting point is on record?
Answer: The melting point was 206 to 207 °C.

Question: With `CCCCn1cnc2c(OCCF)nc(Nc3ccc(OC)nc3)nc21` [compound 58, 2-[(2-Methoxypyrid-5-yl)amino]-6-(2-fluoroethoxy)-9-butyl-9H-purine] as the compound, how does the melting point read?
Answer: The melting point was 163 to 164 °C.

Question: With `C=C(C)COc1nc(Nc2cnc3ccccc3c2)nc2c1ncn2CCCC` [compound 91, 2-[(Quinolin-3-yl)amino]-6-(2-methyl-2-propen-1-oxy)-9-butyl-9H-purine] as the compound, how does the melting point read?
Answer: The melting point was 106 to 108 °C.

Question: For `CCCCn1cnc2c(OCC)nc(Nc3ccc4ncsc4c3)nc21` [compound 96, 2-[(Benzothiazol-6-yl)amino]-6-ethoxy-9-butyl-9H-purine], which melting point is on record?
Answer: The melting point was 150 to 152 °C.

Question: Which melting point does the source give for `CCCCn1cnc2c(OCC(F)F)nc(Nc3ccc(OC)nc3)nc21` [compound 59, 2-[(2-Methoxypyrid-5-yl)amino]-6-(2,2-difluoroethoxy)-9-butyl-9H-purine] here?
Answer: The melting point was 165 to 167 °C.

Question: With `CCCCn1cnc2c(OCC)nc(Nc3ccc(OC(C)C)cc3F)nc21.CS(=O)(=O)O` [compound 54, 2-[(2-Fluoro-4-isopropoxyphenyl)amino]-6-ethoxy-9-butyl-9H-purine methane sulfonate] as the compound, how does the melting point read?
Answer: Its melting point is 138 °C.

Question: With `CCCCn1cnc2c(Oc3cccc(OC)c3)nc(Nc3ccc(F)cc3)nc21` [compound 35, 2-[(4-Fluorophenyl)amino]-6-(3-methoxyphenoxy)-9-butyl-9H-purine] as the compound, how does the melting point read?
Answer: The melting point was 185 to 187 °C.

Question: With `CCCCn1cnc2c(OCCOCCC)nc(Nc3ccc(F)cc3)nc21` [compound 30, 2-[(4-Fluorophenyl)amino]-6-(2-prop-1-oxyethoxy)-9-butyl-9H-purine] as the compound, how does the melting point read?
Answer: The melting point was 149 to 150 °C.

Question: For `CCCCn1cnc2c(OCc3ccccn3)nc(Nc3ccccc3)nc21` [compound 15, 2-(Phenylamino)-6-(pyrid-2-ylmethoxy)-9-butyl-9H-purine], which melting point is on record?
Answer: The melting point was 136 to 138 °C.

Question: For `COc1nc(Nc2ccccc2)nc2c1ncn2Cc1ccccc1` [compound 25, 2-(Phenylamino)-6-methoxy-9-benzyl-9H-purine], which melting point is on record?
Answer: Its melting point is 165 to 167 °C.

Question: Which melting point does the source give for `CCCCn1cnc2c(OC)nc(Nc3ccc(F)cc3)nc21` [compound 27, 2-[(4-Fluorophenyl)amino]-6-methoxy-9-butyl-9H-purine] here?
Answer: Its melting point is 185 to 187 °C.

Question: For `CCCCn1cnc2c(OC)nc(Nc3ccccc3)nc21` [compound 2, 2-(Phenylamino)-6-methoxy-9-butyl-9H-purine], which melting point is on record?
Answer: Its melting point is 172 to 174 °C.

Question: For `CCCCn1cnc2c(Oc3ccccc3)nc(Nc3ccc(OC)cc3OC)nc21` [compound 50, 2-[(2,4-Dimethoxyphenyl)amino]-6-phenoxy-9-butyl-9H-purine], which melting point is on record?
Answer: Its melting point is 129 to 131 °C.

Question: Which melting point does the source give for `CCCCn1cnc2c(OCCOC)nc(Nc3cnc4ccccc4c3)nc21` [compound 88, 2-[(Quinolin-3-yl)amino]-6-(2-methoxyethoxy)-9-butyl-9H-purine] here?
Answer: Its melting point is 161 to 163 °C.

Question: For `CCCCn1cnc2c(OCCOC)nc(Nc3ccc(OCC)nc3)nc21` [compound 72, 2-[(2-Ethoxypyrid-5-yl)amino]-6-(2-methoxyethoxy)-9-butyl-9H-purine], which melting point is on record?
Answer: The melting point was 123 to 125 °C.

Question: With `CCCCn1cnc2c(OC)nc(Nc3ccc(OCC)nc3)nc21` [compound 1, 2-[(2-Ethoxypyrid-5-yl)amino]-6-methoxy-9-butyl-9H-purine] as the compound, how does the melting point read?
Answer: The melting point was 174 to 176 °C.

Question: For `CCCCn1cnc2c(OCc3ccncc3)nc(Nc3ccccc3)nc21` [compound 17, 2-(Phenylamino)-6-(pyrid-4-ylmethoxy)-9-butyl-9H-purine], which melting point is on record?
Answer: Its melting point is 136 to 139 °C.

Question: Which melting point does the source give for `CCCCn1cnc2c(SCC)nc(Nc3ccccc3)nc21` [compound 8, 2-(Phenylamino)-6-(ethylthio)-9-butyl-9H-purine] here?
Answer: The melting point was 173 to 175 °C.

Question: For `CCCCCCn1cnc2c(OC)nc(Nc3ccccc3)nc21` [compound 23, 2-(Phenylamino)-6-methoxy-9-hexyl-9H-purine], which melting point is on record?
Answer: Its melting point is 158 to 160 °C.

Question: For `CCCCn1cnc2c(OC)nc(Nc3ccc(OC)c(F)c3)nc21` [compound 53, 2-[(3-Fluoro-4-methoxyphenyl)amino]-6-methoxy-9-butyl-9H-purine], which melting point is on record?
Answer: Its melting point is 178 to 179 °C.

Question: For `CCCCn1cnc2c(OCC)nc(Nc3ccc(OC)nc3)nc21` [compound 56, 2-[(2-Methoxypyrid-5-yl)amino]-6-ethoxy-9-butyl-9H-purine], which melting point is on record?
Answer: The melting point was 170 to 172 °C.

Question: For `CCCCn1cnc2c(OC)nc(Nc3ccc(OCC)cc3)nc21` [compound 40, 2-[(4-Ethoxyphenyl)amino]-6-methoxy-9-butyl-9H-purine], which melting point is on record?
Answer: The melting point was 171 to 172 °C.

Question: For `CCCCn1cnc2c(OCCOC(C)C)nc(Nc3ccc(F)cc3)nc21` [compound 29, 2-[(4-Fluorophenyl)amino]-6-(2-isopropoxyethoxy)-9-butyl-9H-purine], which melting point is on record?
Answer: Its melting point is 116 to 118 °C.

Question: Which melting point does the source give for `CCCCn1cnc2c(Oc3ccc(OCC)cc3)nc(Nc3ccc(F)cc3)nc21` [compound 36, 2-[(4-Fluorophenyl)amino]-6-(4-ethoxyphenoxy)-9-butyl-9H-purine] here?
Answer: The melting point was 138 to 140 °C.

Question: For `CCCCn1cnc2c(OCCOC)nc(Nc3ccc(OC)cc3OC)nc21` [compound 49, 2-[(2,4-Dimethoxyphenyl)amino]-6-(2-methoxyethoxy)-9-butyl-9H-purine], which melting point is on record?
Answer: The melting point was 88 to 89 °C.

Question: For `CCCCn1cnc2c(OCc3cccs3)nc(Nc3ccc(OCC)nc3)nc21` [compound 76, 2-[(2-Ethoxypyrid-5-yl)amino]-6-(thien-2-ylmethoxy)-9-butyl-9H-purine], which melting point is on record?
Answer: Its melting point is 116 to 118 °C.

Question: Which melting point does the source give for `CCCCn1cnc2c(OCC)nc(Nc3ccccc3)nc21` [compound 3, 2-(Phenylamino)-6-ethoxy-9-butyl-9H-purine] here?
Answer: Its melting point is 159 to 160 °C.

Question: For `CCCCn1cnc2c(OCC(F)(F)F)nc(Nc3ccccc3)nc21` [compound 7, 2-(Phenylamino)-6-(2,2,2-trifluoroethoxy)-9-butyl-9H-purine], which melting point is on record?
Answer: Its melting point is 102 to 104 °C.

Question: For `CCCCn1cnc2c(OCCCOCC)nc(Nc3ccc(F)cc3)nc21` [compound 31, 2-[(4-Fluorophenyl)amino]-6-(3-ethoxyprop-1-oxy)-9-butyl-9H-purine], which melting point is on record?
Answer: The melting point was 95 to 97 °C.
